From ChEMBL document CHEMBL1143477, “Camptothecin binds to a synthetic peptide identified by a T7 phage display screen” (Bioorg Med Chem Lett, 2005)

Tests used:
[1] = Dissociation constant for binding of camptothecin to the synthetic peptide NSSQSARR by surface plasmon resonance (SPR) method after compound dissolved in 10 % DMSO at 25 degree C
[2] = Dissociation constant for binding of camptothecin to the synthetic peptide NSSQSARR by using quartz-crystal microbalance (QCM) method after compound dissolved in 10 % DMSO at 25 degree C

Work on CC[C@@]1(O)C(=O)OCc2c1cc1n(c2=O)Cc2cc3ccccc3nc2-1 [CAMPTOTHECIN] yielded a Kd [1] of 112 nM and a Kd [2] of 94 nM.
